Legend:
Src kinase = Src kinase (UniProt P00523); assay: In vitro Src kinase assay (30-min); format: biochemical; conditions: percent activity vs. DMSO control
Procedure: In vitro Kinase Assays. In vitro kinase assays with the HER2 kinase domain (SignalChem) were performed in triplicate as follows. To 9 μL of a 2.5× solution of kinase and substrate in reaction buffer was added 3 μL of a 5×DMSO or inhibitor dilution in 10% DMSO:water. The inhibitor/kinase solution was incubated at room temperature for 10 minutes. The kinase assay was initiated by the addition of 3 μL of a 5× solution of ATP, and ran for 15 minutes. The final reaction conditions were 50 mM Tris (pH7.4), 5 mM MnCl2, 0.01% Tween-20, 2 mM DTT, 100 μM E4Y substrate (SignalChem), 15 nM HER2, 2% DMSO, 50 μM ATP, and 1 μCi γ^32P-ATP. After 15 minutes, 3 μL of each reaction was pipetted onto phosphocellulose sheets (P81, Whatman) and allowed to dry. The sheets were then washed 4×5 min with a solution of 0.5% phosphoric acid, dried, and exposed to a phosphor screen overnight. Src Kinase assays were conducted as previously described^2. Phosphorimaging was conducted on a Typhoon 9500, image intensities were quantified in ImageQuant 5.2, normalized to the DMSO control and plotted in GraphPad Prism 6.

HER3 TKD = target: T1, HER3 TKD (Homo sapiens, UniProt P21860); assay: HER3 TKD Thermofluor assay; format: binding; conditions: 20 μM inhibitor, 2 μM kinase, vs DMSO
T1 construct: made in house
T1 sequence (P21860 709-966 limits assumed): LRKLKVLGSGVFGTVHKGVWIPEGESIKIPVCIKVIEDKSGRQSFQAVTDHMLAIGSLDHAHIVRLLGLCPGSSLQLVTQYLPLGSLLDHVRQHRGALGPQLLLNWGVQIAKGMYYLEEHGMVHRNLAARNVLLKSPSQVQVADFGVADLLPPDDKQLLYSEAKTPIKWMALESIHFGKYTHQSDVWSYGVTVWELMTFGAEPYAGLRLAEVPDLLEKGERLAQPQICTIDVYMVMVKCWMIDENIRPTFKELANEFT
Procedure: HER3 Thermofluor Assay. Wt HER3 TKD was purified according to the previously published protocol^1. Thermofluor reactions were performed in duplicate and set up as follows. 1 μL of an inhibitor or DMSO dilution in 40% DMSO:water was added to 19 μL of the HER3 kinase domain in reaction buffer. The final reaction solution contained 100 mM MOPS, 200 mM NaCl, 5% glycerol, 5 mM MgCl2, 0.1 mM DTT, 5×SYPRO Orange, 2 μM kinase, 2% DMSO and 20 μM inhibitor in the wells of a 96-well, low profile, white, PCR plate (USA scientific). The solution was pipetted up and down to mix, sealed with TempAssure clear PCR flat caps (USA Scientific), centrifuged at 500×g for 30 s, and heated in a Stratagene Mx3005P RT-PCR machine from 25° C. to 95° C. in 0.5° C. increments every 30 s after an initial incubation at 25° C. for 10 min. Fluorescence was measured at the end of each 30 s period with an excitation wavelength of 492 nm and an emission wavelength of 610 nm. To obtain the melting temperature, fluorescent signals were normalized to the maximum fluorescent signal for that well. Values after the well had reached a maximum signal were discarded and the signals were fit to the Boltzmann equation in Graphpad Prism 6. ΔTm was calculated as the difference in melting temperature between the compound-treated kinase compared to the DMSO control.

SMILES	IC50 (Src kinase)	binding to HER3 TKD (percent unfolded protein vs. temperature) (HER3 TKD)
COc1cc(Nc2c(C#N)cnc3cc(OCCCN4CCN(C)CC4)c(OC)cc23)c(Cl)cc1Cl [bosutinib, reference compound]	3.3 nM	
COc1cc2ncc(C#N)c(Nc3ccc(Oc4cccc(NC(=O)Nc5cccc(C(F)(F)F)c5)c4)cc3)c2cc1OC [50A, 1-(3-(4-((3-cyano-6,7-dimethoxyquinolin-4-yl)amino)phenoxy)phenyl)-3-(3-(trifluoromethyl)phenyl)urea]	3.3 nM	particularly tight binding
